The source of these data is ChEMBL document CHEMBL5365476, “VHL-Modified PROteolysis TArgeting Chimeras (PROTACs) as a Strategy to Evade Metabolic Degradation in In Vitro Applications” (J Med Chem, 2023).

In series [1] the target is von Hippel-Lindau disease tumor suppressor (Homo sapiens) (UniProt P40337). The series can be described thus: Binding affinity to 6-His tagged human VHL at 50 uM incubated for 1 hr by HTRF based assay relative to control.
Series [2] in a line: Metabolic stability in human hepatocytes assessed as half life. Type of series: ADME, cell-based, Hepatocyte.
Series [3] is described as follows: Drug metabolism in HEK293 cells cytosol assessed as M-200 metabolite formation incubated for 60 mins. Type of series: ADME, subcellular. The settings on record: human, 1 h.
Series [4] can be described thus: Drug metabolism in HEK293 cells cytosol assessed as M+16 metabolite formation incubated for 60 mins. In kind it is ADME, subcellular. The settings on record: human, 1 h.
Series [5] can be described thus: Drug metabolism in human hepatocytes assessed as M + 16 metabolite formation incubated for 240 mins in presence of ZPP by LC-MS/MS analysis. Type of series: ADME, cell-based, Hepatocyte. The settings on record: 4 h.
The nature of series [6]: Drug metabolism in human liver microsomes assessed as M-200 metabolite formation incubated for 60 mins in presence of 30 nM ZPP. Type of series: ADME, Microsome. The settings on record: 1 h.
Series [7] in a line: Drug metabolism in human liver microsomes assessed as M-200 metabolite formation incubated for 60 mins. In kind it is ADME, Microsome. The following applies: 1 h.
The nature of series [8]: Drug metabolism in human hepatocytes assessed as M + 16 metabolite formation incubated for 240 mins by LC-MS/MS analysis. In kind it is ADME, cell-based, Hepatocyte. The settings on record: 4 h.
A short description of series [9]: Drug metabolism in human hepatocytes assessed as M-200 metabolite formation incubated for 240 mins in presence of ZPP by LC-MS/MS analysis. In kind it is ADME, cell-based, Hepatocyte. The following applies: 4 h.
Series [10] is described as follows: Drug metabolism in human liver microsomes assessed as M-200 metabolite formation incubated for 60 mins in presence of 1 nM ZPP. Type of series: ADME, Microsome. The settings on record: 1 h.
Series [11] in a line: Drug metabolism in human hepatocytes assessed as M-200 metabolite formation incubated for 240 mins in presence of 3 uM ZPP by LC-MS/MS analysis. Type of series: ADME, cell-based, Hepatocyte. The following applies: 4 h.
Series [12] in a line: Drug metabolism in HEK293 cells cytosol assessed as M-200 metabolite formation incubated for 60 mins in presence of 30 nM ZPP. In kind it is ADME, subcellular. The following applies: human, 1 h.
Series [13] is described as follows: Metabolic stability in HEK293 cells cytosol assessed as half life. Type of series: ADME, subcellular. The following applies: human, HEK293 cell cytosol.
A short description of series [14]: Drug metabolism in human liver cytosol assessed as M-200 metabolite formation incubated for 60 mins in presence of 30 nM ZPP. The following applies: 1 h. Type of series: ADME, subcellular.
The nature of series [15]: Drug metabolism in HEK293 cells cytosol assessed as M-525 metabolite formation. Type of series: ADME, subcellular. The following applies: human.
The nature of series [16]: Drug metabolism in HEK293 cells cytosol assessed as M+16 metabolite formation incubated for 60 mins in presence of 1 to 30 nM ZPP. In kind it is ADME, subcellular. The settings on record: human, 1 h.
Series [17] in a line: Drug metabolism in human liver cytosol assessed as M-200 metabolite formation incubated for 60 mins in presence of 100 uM ZPP. In kind it is ADME, subcellular. The settings on record: 1 h.

von Hippel-Lindau disease tumor suppressor (Homo sapiens), sequence (P40337 whole entry, looked up): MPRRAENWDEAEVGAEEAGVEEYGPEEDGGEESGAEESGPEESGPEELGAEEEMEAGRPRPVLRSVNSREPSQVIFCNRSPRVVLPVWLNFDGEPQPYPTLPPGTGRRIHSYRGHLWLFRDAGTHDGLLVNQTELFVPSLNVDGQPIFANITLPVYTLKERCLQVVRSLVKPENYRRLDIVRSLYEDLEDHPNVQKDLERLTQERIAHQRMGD

In series [1], `Cc1nc(C)c(-c2ccc([C@H](C)NC(=O)[C@@H]3C[C@@H](O)CN3C(=O)[C@@H](N)C(C)(C)C)cc2)s1.Cl` registered an Activity of 65%. Moreover, the half-life in series [2] worked out at 2.74 h.
With `Cc1ncsc1-c1ccc(-c2cnc([C@@H]3C[C@@H](O)CN3C(=O)[C@@H](NC(=O)CCCCNC(=O)COc3c(-c4csc(N5CCOCC5)n4)ccc(F)c3F)C(C)(C)C)[nH]2)cc1`, the Drug metabolism result in series [3] is on record as “Metabolite_Notdetected”; in series [4], “Metabolite_Detected”.
In the case of `Cc1ncsc1-c1ccc([C@H](C)NC(=O)[C@@H]2C[C@@H](O)CN2C(=O)[C@@H](NC(=O)CCCCNC(=O)COc2c(-c3csc(N4CCOCC4)n3)ccc(F)c2F)C(C)(C)C)cc1`, the Drug metabolism result in [5] was “Metabolite_Detected”; in series [6], “Metabolite_Notdetected”; in [7], “Metabolite_Notdetected”; in [8], “Metabolite_Detected”; in [9] it was “Metabolite_Detected”; in series [10], “Metabolite_Notdetected”. Further, the Drug metabolism result is “Metabolite_Notdetected” in [11], “Metabolite_Notdetected” in series [12], “Metabolite_Notdetected” in series [14] and “Metabolite_Detected” in [15]. Also, the half-life in [13] amounted to 2.85 h.
Regarding `Cc1ncsc1-c1ccc(-c2c[nH]c([C@@H]3C[C@@H](O)CN3C(=O)[C@@H](N)C(C)(C)C)n2)cc1`, the Activity in series [1] was 21%. Also, the half-life in series [2] stood at 5.76 h.
For the compound `Cc1ncsc1-c1ccc([C@H](C)NC(=O)[C@@H]2C[C@@H](O)CN2C(=O)[C@@H](N)C(C)(C)C)cc1`, the Drug metabolism entry in series [16], in series [5], in series [8], in series [17] and in [4] was “Metabolite_Detected” in each case. The compound also gave an Activity in series [1] of 73%. In addition, the half-life in series [2] was found to be 2.01 h.
As to `Cc1nc(C)c(-c2ccc(-c3c[nH]c([C@@H]4C[C@@H](O)CN4C(=O)[C@@H](N)C(C)(C)C)n3)cc2)s1`, in [1], the Activity turned out to be 35%. Also, the half-life in series [2] worked out at 5.58 h.
For `Cc1nc(C)c(-c2ccc(-c3cnc([C@@H]4C[C@@H](O)CN4C(=O)[C@@H](NC(=O)CCCCNC(=O)COc4c(-c5csc(N6CCOCC6)n5)ccc(F)c4F)C(C)(C)C)[nH]3)cc2)s1`, the half-life in series [13] amounted to 17.1 h.
